The record followed here is US11427548B2 (Arvinas Operations, Inc., priority 2015, dated 2022).

The term DC50 denotes the concentration at which degradation of the target reaches its halfway point. The Dmax is the greatest extent of degradation seen.

SMILES strings stand for the structures. Read-outs that look alike come from different tables or passages of the source.

The assay addresses T1, Androgen Receptor (Homo sapiens, UniProt P10275).
T1 construct: endogenous in cells; host or cells: VCaP cells
T1 sequence (P10275 1-920): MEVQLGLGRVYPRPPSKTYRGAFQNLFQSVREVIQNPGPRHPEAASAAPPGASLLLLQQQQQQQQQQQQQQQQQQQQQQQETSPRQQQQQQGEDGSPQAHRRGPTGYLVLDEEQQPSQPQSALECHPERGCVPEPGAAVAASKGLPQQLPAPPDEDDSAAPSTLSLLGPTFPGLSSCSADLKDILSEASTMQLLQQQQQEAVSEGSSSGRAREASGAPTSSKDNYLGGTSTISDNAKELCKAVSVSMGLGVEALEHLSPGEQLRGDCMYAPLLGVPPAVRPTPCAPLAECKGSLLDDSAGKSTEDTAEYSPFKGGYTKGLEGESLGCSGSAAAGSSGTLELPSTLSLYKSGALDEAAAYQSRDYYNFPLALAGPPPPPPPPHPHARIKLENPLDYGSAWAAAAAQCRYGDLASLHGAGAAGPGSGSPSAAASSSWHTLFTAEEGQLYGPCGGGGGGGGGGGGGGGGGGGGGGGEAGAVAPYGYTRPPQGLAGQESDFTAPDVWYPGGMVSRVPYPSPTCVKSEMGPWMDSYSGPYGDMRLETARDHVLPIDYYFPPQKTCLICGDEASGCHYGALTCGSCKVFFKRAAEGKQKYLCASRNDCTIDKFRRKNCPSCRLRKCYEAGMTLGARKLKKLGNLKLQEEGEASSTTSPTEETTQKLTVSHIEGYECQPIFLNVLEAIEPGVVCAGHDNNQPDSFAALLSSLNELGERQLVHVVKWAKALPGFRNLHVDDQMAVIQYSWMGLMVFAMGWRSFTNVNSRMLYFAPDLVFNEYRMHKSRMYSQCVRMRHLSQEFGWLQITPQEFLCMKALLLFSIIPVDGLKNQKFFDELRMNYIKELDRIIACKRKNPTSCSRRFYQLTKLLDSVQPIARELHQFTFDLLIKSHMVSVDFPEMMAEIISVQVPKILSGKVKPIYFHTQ
Description: Androgen Receptor ELISA assay (PathScan AR ELISA) in VCaP cells: AR degradation, Dmax and DC50. It counts as cell-based. An outline of the steps:
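After 24 h exposure of VCaP cells (charcoal-stripped serum, 0.1 nM R1881 agonist, 0.1% DMSO) to seven half-log compound concentrations, residual AR in lysates was measured by PathScan ELISA (TMB absorbance, 450 nm). Cells were plated at 30,000/well and grown at least 3 days beforehand.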

Setting [1] is: VCaP cells; Table 36; read-out: VCaP DC50.
[2] abbreviates: VCaP, read-out: VCaP Dmax (%), VCaP cells; Table 36.
Where [3] appears, read: VCaP, VCaP cells; Table 36; read-out: VCaP Dmax (%).

In the case of `Cc1ncsc1-c1ccc([C@H](C)NC(=O)[C@@H]2C[C@@H](O)CN2C(=O)[C@@H](NC(=O)CN2CCN(CCCc3ccc(C(=O)N[C@H]4C(C)(C)[C@H](Oc5ccc(C#N)c(Cl)c5)C4(C)C)cc3)[C@@H](CO)C2)C(C)(C)C)cc1` [Example 823, (2S,4R)-1-((S)-2-(2-((R)-4-(3-(4-(((1r,3R)-3-(3-chloro-4-cyanophenoxy)-2,2,4,4-tetramethylcyclobutyl)carbamoyl)phenyl)propyl)-3-(hydroxymethyl)piperazin-1-yl)acetamido)-3,3-dimethylbutanoyl)-4-hydroxy-N-((S)-1-(4-(4-methylthiazol-5-yl)phenyl)ethyl) pyrrolidine-2-carboxamide], under setting [1], the DC50 is below 50 nM. Moreover, the Dmax (VCaP, read-out: VCaP Dmax (%)) is above 71%.

For the compound `Cc1ncsc1-c1ccc([C@H](C)NC(=O)[C@@H]2C[C@@H](O)CN2C(=O)[C@@H](NC(=O)CN2CCN(CCCc3ccc(C(=O)N[C@H]4C(C)(C)[C@H](Oc5ccc(C#N)c(Cl)c5)C4(C)C)cc3)[C@H](CO)C2)C(C)(C)C)cc1` [Example 824, (2S,4R)-1-((S)-2-(2-((S)-4-(3-(4-(((1r,3S)-3-(3-chloro-4-cyanophenoxy)-2,2,4,4-tetramethylcyclobutyl)carbamoyl)phenyl)propyl)-3-(hydroxymethyl)piperazin-1-yl)acetamido)-3,3-dimethylbutanoyl)-4-hydroxy-N-((S)-1-(4-(4-methylthiazol-5-yl)phenyl)ethyl) pyrrolidine-2-carboxamide], the half-maximal degradation concentration (DC50) under setting [1] is below 50 nM. The Dmax (VCaP, read-out: VCaP Dmax (%)) is above 71%.

Consider `Cc1ncsc1-c1ccc([C@H](C)NC(=O)[C@@H]2C[C@@H](O)CN2C(=O)[C@@H](NC(=O)CN2CCC(CN3CCN(c4ccc(C(=O)N[C@H]5C(C)(C)[C@H](Oc6ccc(C#N)c(Cl)c6)C5(C)C)cn4)CC3)CC2)C(C)(C)C)cc1` [Example 825, N-((1r,3r)-3-(3-chloro-4-cyanophenoxy)-2,2,4,4-tetramethylcyclobutyl)-6-(4-((1-(2-(((S)-1-((2S,4R)-4-hydroxy-2-(((S)-1-(4-(4-methylthiazol-5-yl)phenyl)ethyl)carbamoyl)pyrrolidin-1-yl)-3,3-dimethyl-1-oxobutan-2-yl)amino)-2-oxoethyl)piperidin-4-yl)methyl)piperazin-1-yl)nicotinamide], for which the half-maximal degradation concentration (DC50) under setting [1] is below 50 nM. The Dmax (VCaP, read-out: VCaP Dmax (%)) was above 71%.

Regarding `Cc1ncsc1-c1ccc([C@H](CO)NC(=O)[C@@H]2C[C@@H](O)CN2C(=O)[C@@H](NC(=O)COCCN2[C@H](C)CN(c3ccc(C(=O)N[C@H]4C(C)(C)[C@H](Oc5ccc(C#N)c(Cl)c5)C4(C)C)cn3)C[C@@H]2C)C(C)(C)C)cc1` [Example 826, N-((1r,3R)-3-(3-chloro-4-cyanophenoxy)-2,2,4,4-tetramethylcyclobutyl)-6-((3S,5R)-4-(2-(2-(((S)-1-((2S,4R)-4-hydroxy-2-(((R)-2-hydroxy-1-(4-(4-methylthiazol-5-yl)phenyl)ethyl)carbamoyl)pyrrolidin-1-yl)-3,3-dimethyl-1-oxobutan-2-yl)amino)-2-oxoethoxy)ethyl)-3,5-dimethylpiperazin-1-yl)nicotinamide], under setting [1], the 50% degradation concentration (DC50) is below 50 nM. Besides, under setting [2], the Dmax is above 71%.

On to `Cc1ncsc1-c1ccc([C@H](C)NC(=O)C2C[C@@H](O)CN2C(=O)C(NC(=O)CN2CCC(CCN3CCN(c4ccc(C(=O)NC5C(C)(C)C(Oc6ccc(C#N)c(Cl)c6)C5(C)C)cn4)CC3)CC2)C(C)(C)C)cc1` (stereo partly drawn) [Example 827, N-((1r,3r)-3-(3-chloro-4-cyanophenoxy)-2,2,4,4-tetramethylcyclobutyl)-6-(4-(2-(1-(2-(((S)-1-((2S,4R)-4-hydroxy-2-(((S)-1-(4-(4-methylthiazol-5-yl)phenyl)ethyl)carbamoyl)pyrrolidin-1-yl)-3,3-dimethyl-1-oxobutan-2-yl)amino)-2-oxoethyl)piperidin-4-yl)ethyl)piperazin-1-yl)nicotinamide], for which, under setting [1], the DC50 is below 50 nM. The Dmax under setting [3] was above 71%.

`Cc1ncsc1-c1ccc([C@H](CO)NC(=O)C2C[C@@H](O)CN2C(=O)C(NC(=O)CN2C3CCC2CN(CCCc2ccc(C(=O)NC4C(C)(C)C(Oc5ccc(C#N)c(Cl)c5)C4(C)C)cc2)C3)C(C)(C)C)cc1` (stereo partly drawn) [Example 828, (2S,4R)-1-((2S)-2-(2-(3-(3-(4-(((1r,3r)-3-(3-chloro-4-cyanophenoxy)-2,2,4,4-tetramethylcyclobutyl)carbamoyl)phenyl)propyl)-3,8-diazabicyclo[3.2.1]octan-8-yl)acetamido)-3,3-dimethylbutanoyl)-4-hydroxy-N-((R)-2-hydroxy-1-(4-(4-methylthiazol-5-yl)phenyl)ethyl) pyrrolidine-2-carboxamide]: under “VCaP, read-out: VCaP Dmax (%)”, the Dmax is above 71%. For the same compound, the 50% degradation concentration (DC50) (read-out: VCaP DC50; VCaP cells; Table 36) is below 50 nM.

For the compound `Cc1ncsc1-c1ccc([C@H](C)NC(=O)[C@@H]2C[C@@H](O)CN2C(=O)[C@@H](NC(=O)CN2CCN(CCC3CCN(c4ccc(C(=O)N[C@H]5C(C)(C)[C@H](Oc6ccc(C#N)c(Cl)c6)C5(C)C)cn4)C3)CC2)C(C)(C)C)cc1` (stereo partly drawn) [Example 829, N-((1r,3r)-3-(3-chloro-4-cyanophenoxy)-2,2,4,4-tetramethylcyclobutyl)-6-(3-(2-(4-(2-(((S)-1-((2S,4R)-4-hydroxy-2-(((S)-1-(4-(4-methylthiazol-5-yl)phenyl)ethyl)carbamoyl)pyrrolidin-1-yl)-3,3-dimethyl-1-oxobutan-2-yl)amino)-2-oxoethyl)piperazin-1-yl)ethyl)pyrrolidin-1-yl)nicotinamide], under setting [1], the DC50 is below 50 nM. Also, the Dmax (VCaP, read-out: VCaP Dmax (%)) was above 71%.

For the compound `Cc1ncsc1-c1ccc([C@H](C)NC(=O)[C@@H]2C[C@@H](O)CN2C(=O)[C@H](c2cc(CCCCN3CCN(c4ccc(C(=O)N[C@H]5C(C)(C)[C@H](Oc6ccc(C#N)c(Cl)c6)C5(C)C)cn4)CC3)no2)C(C)C)cc1` [Example 830, N-((1r,3r)-3-(3-chloro-4-cyanophenoxy)-2,2,4,4-tetramethylcyclobutyl)-6-(4-(4-(5-((S)-1-((2S, 4R)-4-hydroxy-2-(((S)-1-(4-(4-methylthiazol-5-yl)phenyl)ethyl)carbamoyl)pyrrolidin-1-yl)-3-methyl-1-oxobutan-2-yl)isoxazol-3-yl)butyl)piperazin-1-yl)nicotinamide], the DC50 under setting [1] was above 501 nM. For the same compound, the Dmax under setting [2] is below 25%.

With `Cc1ncsc1-c1ccc([C@H](C)NC(=O)[C@@H]2C[C@@H](O)CN2C(=O)[C@@H](c2cc(CCCCN3CCN(c4ccc(C(=O)N[C@H]5C(C)(C)[C@H](Oc6ccc(C#N)c(Cl)c6)C5(C)C)cn4)CC3)no2)C(C)C)cc1` [Example 831, N-((1r,3r)-3-(3-chloro-4-cyanophenoxy)-2,2,4,4-tetramethylcyclobutyl)-6-(4-(4-(5-((R)-1-((2S, 4R)-4-hydroxy-2-(((S)-1-(4-(4-methylthiazol-5-yl)phenyl)ethyl)carbamoyl)pyrrolidin-1-yl)-3-methyl-1-oxobutan-2-yl)isoxazol-3-yl)butyl)piperazin-1-yl)nicotinamide], the 50% degradation concentration (DC50) under setting [1] is below 50 nM. Besides, the Dmax under setting [2] is above 71%.

On to `Cc1ncsc1-c1ccc([C@H](C)NC(=O)[C@@H]2C[C@@H](O)CN2C(=O)[C@@H](NC(=O)CN[C@H]2C[C@H](OC3CCN(c4ccc(C(=O)N[C@H]5C(C)(C)[C@H](Oc6ccc(C#N)c(Cl)c6)C5(C)C)cn4)CC3)C2)C(C)(C)C)cc1` [Example 832, N-((1r,3r)-3-(3-chloro-4-cyanophenoxy)-2,2,4,4-tetramethylcyclobutyl)-6-(4-((1S,3r)-3-((2-(((S)-1-((2S,4R)-4-hydroxy-2-(((S)-1-(4-(4-methylthiazol-5-yl)phenyl)ethyl)carbamoyl)pyrrolidin-1-yl)-3,3-dimethyl-1-oxobutan-2-yl)amino)-2-oxoethyl)amino)cyclobutoxy)piperidin-1-yl)nicotinamide], for which the half-maximal degradation concentration (DC50) under setting [1] was below 50 nM. For the same compound, the Dmax (VCaP, read-out: VCaP Dmax (%)) was above 71%.

`Cc1ncsc1-c1ccc([C@H](C)NC(=O)[C@@H]2C[C@@H](O)CN2C(=O)[C@@H](NC(=O)CN2CCN(CCC3CCN(c4ccc(C(=O)N[C@H]5C(C)(C)[C@H](Oc6ccc(C#N)c(Cl)c6)C5(C)C)cn4)CC3)CC2)C(C)(C)C)cc1` [Example 833, N-((1r,3r)-3-(3-chloro-4-cyanophenoxy)-2,2,4,4-tetramethylcyclobutyl)-6-(4-(2-(4-(2-(((S)-1-((2S,4R)-4-hydroxy-2-(((S)-1-(4-(4-methylthiazol-5-yl)phenyl)ethyl)carbamoyl)pyrrolidin-1-yl)-3,3-dimethyl-1-oxobutan-2-yl)amino)-2-oxoethyl)piperazin-1-yl)ethyl)piperidin-1-yl)nicotinamide]: the 50% degradation concentration (DC50) under setting [1] was below 50 nM. Under setting [3], the Dmax was above 71%.
